{"source": "patent US12042539B2", "about": "“Compositions and kits for Omeprazole suspension” (Azurity Pharmaceuticals, Inc., priority 2019, dated 2024)", "key": {"[1]": {"conditions": "increase in poloxamer concentration beyond 10 mg/mL; cited from earlier work"}, "[2]": {"conditions": "cited from earlier work"}, "[3]": {"experiment": "PXRD of reconstituted suspensions (polymorphic form of omeprazole API)", "format": "physicochemical", "conditions": "3M and 6M Day 30, 25° C./60% RH and 2-8° C.", "experimental": "To evaluate the polymorphic characteristic of omeprazole API during reconstitution stability studies, the reconstituted suspensions were analyzed by X-ray diffraction (XRD) at 3M and 6M time points at 25° C./60% RH and 2-8° C. conditions."}, "[4]": {"conditions": "cited from earlier work", "remark": "listed apart in the source"}, "P-glycoprotein": {"molecular_target": "P-glycoprotein (Homo sapiens, UniProt P08183)", "sequence (P08183 whole entry)": "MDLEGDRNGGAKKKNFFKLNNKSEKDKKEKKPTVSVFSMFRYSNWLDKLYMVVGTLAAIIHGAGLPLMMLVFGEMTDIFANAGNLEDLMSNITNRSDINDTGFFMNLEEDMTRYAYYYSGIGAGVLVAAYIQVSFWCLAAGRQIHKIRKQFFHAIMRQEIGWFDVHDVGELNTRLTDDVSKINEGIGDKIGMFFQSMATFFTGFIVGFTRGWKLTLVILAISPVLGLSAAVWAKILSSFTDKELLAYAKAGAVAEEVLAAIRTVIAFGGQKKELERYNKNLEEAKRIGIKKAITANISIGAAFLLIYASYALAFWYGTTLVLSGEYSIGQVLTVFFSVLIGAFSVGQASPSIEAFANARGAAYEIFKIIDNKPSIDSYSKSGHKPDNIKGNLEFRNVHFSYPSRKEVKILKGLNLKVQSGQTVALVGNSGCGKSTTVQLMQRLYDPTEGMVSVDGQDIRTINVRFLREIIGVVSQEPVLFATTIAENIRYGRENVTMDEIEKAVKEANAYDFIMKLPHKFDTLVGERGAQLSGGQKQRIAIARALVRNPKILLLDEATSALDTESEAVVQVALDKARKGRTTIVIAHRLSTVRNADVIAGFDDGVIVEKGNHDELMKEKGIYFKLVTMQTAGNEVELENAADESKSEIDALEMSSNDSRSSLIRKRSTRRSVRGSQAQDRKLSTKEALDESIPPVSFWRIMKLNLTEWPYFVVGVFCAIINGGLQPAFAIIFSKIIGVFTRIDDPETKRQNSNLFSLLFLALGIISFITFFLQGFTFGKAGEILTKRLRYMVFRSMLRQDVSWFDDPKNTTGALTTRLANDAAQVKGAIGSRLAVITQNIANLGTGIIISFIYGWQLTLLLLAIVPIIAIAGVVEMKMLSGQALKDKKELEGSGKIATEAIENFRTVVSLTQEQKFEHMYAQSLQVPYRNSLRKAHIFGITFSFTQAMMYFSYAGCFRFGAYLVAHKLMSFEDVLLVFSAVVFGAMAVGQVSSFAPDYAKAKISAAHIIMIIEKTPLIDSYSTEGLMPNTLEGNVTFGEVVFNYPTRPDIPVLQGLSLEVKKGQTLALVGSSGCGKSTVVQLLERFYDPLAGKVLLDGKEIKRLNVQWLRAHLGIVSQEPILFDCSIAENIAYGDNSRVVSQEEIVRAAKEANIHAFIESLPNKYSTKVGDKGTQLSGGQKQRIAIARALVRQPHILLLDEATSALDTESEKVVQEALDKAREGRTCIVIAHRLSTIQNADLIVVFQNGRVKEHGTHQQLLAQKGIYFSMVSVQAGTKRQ", "conditions": "cited from earlier work"}, "[5]": {"experiment": "Related substance (omeprazole impurities) at stability time points", "format": "physicochemical", "conditions": "Omeprazole API", "source_text": "Monitoring the trend of increase in chemical impurities/related substances is important with respect to stability of a formulation. Related substance data developed during stability studies of a formulation play a crucial role with respect to determining a useable shelf life for a formulation.\nSpecification: • a. […] 5-Methoxy-1H-Benzimidazol-2-thiol: NMT 0.50% • c. Omeprazole sulphone N-Oxide: NMT 0.50% • d. Omeprazole N-Oxide: NMT 0.50% • e. Omeprazole Sulphone: NMT 0.50% • f Omeprazole 4-Chloro analog (IMP-H): NMT 0.50% • g. Sulphide (Ufiprazole): NMT 0.50% • h. Desmethoxy Omeprazole: NMT 0.50% • i. Any other individual impurity: NMT 0.20% • j. Total impurities: NMT 2.0%"}, "[6]": {"experiment": "Phase solubility of omeprazole at different concentrations of poloxamer 188", "format": "physicochemical", "conditions": "for solubility: thermodynamic from solid, read-out: Soluble fraction"}}, "note": "Where two headings read alike, the source gives them in different places."}
{"smiles": "CC(C)(C)NCC(O)COc1cccc2c1CC(O)C(O)C2", "note": "(centres unmarked) [nadolol]", "values": [{"measurement": "Effect of poloxamer on permeability", "setting": "[1]", "value": "didn't show a significant effect"}]}
{"smiles": "COc1ccc2[nH]c([S+]([O-])Cc3ncc(C)c(OC)c3C)nc2c1", "note": "(centres unmarked) [Omeprazole]", "values": [{"measurement": "half-life", "setting": "[2]; in vivo", "value": "30 to 60", "unit": "min"}, {"measurement": "Peak Plasma concentration, time to achieve", "setting": "[2]; marketed formulations of omeprazole", "value": "very rapidly"}, {"measurement": "Polymorphic form conversion (PXRD)", "setting": "[3]", "value": "no polymorphic form conversion"}, {"measurement": "Log P", "setting": "[4]", "value": 2.43}, {"measurement": "solubility", "setting": "[4]; in water", "value": "Very slightly soluble in water"}, {"measurement": "P-gp inhibition effects", "setting": "P-glycoprotein", "value": "does not have P-gp inhibition effects"}, {"measurement": "P-gp substrate", "setting": "P-glycoprotein", "value": "moderate P-gp substrate"}, {"measurement": "Related Substance: Omeprazole F&G", "setting": "[5]", "value": 0.031, "unit": "%"}, {"measurement": "Related Substance: Omeprazole sulphone N-Oxide", "setting": "[5]", "value": "Not Detected"}, {"measurement": "Related Substance: Total impurities", "setting": "[5]", "value": 0.05, "unit": "%"}, {"measurement": "Related Substance: 5-Methoxy Benzamidazole 2 thiol", "setting": "[5]; LOQ (0.01%)", "value": "Less than LOQ"}, {"measurement": "Related Substance: Desmethoxy Omeprazole", "setting": "[5]; LOQ (0.01%)", "value": "Less than LOQ"}, {"measurement": "Related Substance: Omeprazole 4-Chloro analog (IMP-H)", "setting": "[5]; LOQ (0.01%)", "value": "Less than LOQ"}, {"measurement": "Related Substance: Omeprazole N-Oxide", "setting": "[5]; LOQ (0.01%)", "value": "Less than LOQ"}, {"measurement": "Related Substance: Omeprazole Sulphide", "setting": "[5]; LOQ (0.01%)", "value": "Less than LOQ"}, {"measurement": "Related Substance: Omeprazole Sulphone (IMP-A)", "setting": "[5]; LOQ (0.01%)", "value": "Less than LOQ"}, {"measurement": "Soluble fraction (%)", "setting": "[6]; 0 % w/v Poloxamer Content", "value": 10.9, "unit": "%"}, {"measurement": "solubility", "setting": "[6]; 0% w/v poloxamer 188 (base solvent not stated), 0 % w/v Poloxamer Content", "value": 218, "unit": "µg/mL"}, {"measurement": "Soluble fraction (%)", "setting": "[6]; 0.5 % w/v Poloxamer Content", "value": 15.6, "unit": "%"}, {"measurement": "Soluble fraction (%)", "setting": "[6]; 1 % w/v Poloxamer Content", "value": 17.1, "unit": "%"}, {"measurement": "Soluble fraction (%)", "setting": "[6]; 2 % w/v Poloxamer Content", "value": 47.8, "unit": "%"}, {"measurement": "Soluble fraction (%)", "setting": "[6]; 4 % w/v Poloxamer Content", "value": 47.3, "unit": "%"}, {"measurement": "Omeprazole solubility", "setting": "[6]; at higher poloxamer 188 content (above 1% w/v)", "value": "increased significantly"}, {"measurement": "solubility", "setting": "[6]; poloxamer 188 at 2% w/v (base solvent not stated), aqueous with cosolvent or surfactant or cyclodextrin, 2 % w/v Poloxamer Content", "value": 957, "unit": "µg/mL"}, {"measurement": "solubility", "setting": "[6]; poloxamer 188 at 4% w/v (base solvent not stated), aqueous with cosolvent or surfactant or cyclodextrin, 4 % w/v Poloxamer Content", "value": 946, "unit": "µg/mL"}, {"measurement": "solubility", "setting": "[6]; poloxamer 188 solution (0.5% w/v), aqueous with cosolvent or surfactant or cyclodextrin, 0.5 % w/v Poloxamer Content", "value": 313, "unit": "µg/mL"}, {"measurement": "solubility", "setting": "[6]; poloxamer 188 solution (1% w/v), aqueous with cosolvent or surfactant or cyclodextrin, 1 % w/v Poloxamer Content", "value": 342, "unit": "µg/mL"}, {"measurement": "Impact of poloxamer 188 content on omeprazole solubility", "setting": "[6]; up to 1% w/v poloxamer 188", "value": "did not show any significant impact"}]}
